The text below walks through data of ChEMBL document CHEMBL3988442, “University of Dundee, Small-Polar-MMV Screening Library” (2021).

A short description of assay [1]: microbe, parasite or virus in culture. As to conditions: Mycobacterium tuberculosis, 96 h, read-out: pIC50 (converted).
Assay [2] concerns Mycobacterium tuberculosis. In words: Cornell M. t heat shock assay. The assay is classed as functional, organism-based. As to conditions: for IC50: Mycobacterium tuberculosis.
Assay [3] can be described thus: microbe, parasite or virus in culture. As to conditions: Mycobacterium tuberculosis, 72 h, read-out: pIC50 (converted).

Structures are written as SMILES. Several values for one entry are separate records, joined by “and”; a condition that tells them apart may be missing. Equal values may be shown once.

On to `Cc1cc(C(=O)N2CCN(c3nc4c(C(C)C)cccc4s3)CC2)no1`, for which the IC50 is 42.6 µM in assay [1], 57.9 µM in assay [2] and more than 50.1 µM in assay [3].
Taken in the same sequence, the figures for `Clc1cccc(C[C@@H]2NCCC[C@@H]2Nc2cccc(Cl)c2)c1` were 9.04 µM, 5.94 µM and 6.67 µM.
Take `Nc1cc(N2CCOCC(Cc3ccc4[nH]ccc4c3)C2)ncn1` (stereo unspecified): the figures for the IC50 in assay [1] and in assay [3] were 13.4 µM and 28.8 µM, respectively. Moreover, the pIC50 in assay [2] is < 4 and < 4.31.
For `Cc1cc2c(cc1Cl)C=CC1(CCN(CC(=O)NC3CCCC3)CC1)O2`, the IC50 in assay [1] is more than 50.1 µM; in assay [2] it was 49.9 µM; in assay [3] it was 45.4 µM.
Taken in the same sequence, the figures for `O=C(NCCc1cccc(F)c1)C1(n2cnnn2)CCCCC1` were 43.2 µM, 11.1 µM and 46.9 µM.
Taken in the same sequence, the figures for `O[C@@H]1CN(CC2=Cc3cc(Cl)ccc3OC2)CC[C@H]1N1CCCCCC1` were 46.9 µM, 52.7 µM and 49.3 µM.
Taken in the same sequence, the figures for `CC(C)Cc1ncc2c(n1)CN(c1nccc(NC(C)C)n1)C2` were 15.5 µM, 34.5 µM and 23.9 µM.
In assay [2], `COc1cc(C(=O)Nc2nc(C)no2)cc(Cl)c1OC` had a pIC50 of 4.499 and an IC50 of 24.8 µM.
For `COc1ccc(CNC(Cc2ccsc2)c2ncccc2C)cc1OC` (stereo unspecified), the IC50 in assay [2] was more than 49 µM.
The same measure, in the same setting: in the case of `O=C(c1cc2cc(I)ccc2[nH]1)N1CCC(Nc2cccnn2)CC1` it was 48.7 µM.
As to `CCn1ccc(-c2cc(NCCCOc3cccc(C)c3)nc(C)n2)n1`, the values for the IC50 in assay [1], in assay [2] and in assay [3] were 18.9 µM, 55.1 µM and 30.2 µM, respectively. In assay [2], this compound returned a pIC50 of 4.417.
Taken in the same sequence, the figures for `CN1CCCCC1c1ncc2c(n1)CCN(CCCc1ccccc1)C2` (stereo unspecified) were 41.2 µM, 39.4 µM, 44.5 µM and 4.46.
As for `CC(C)Cn1nc(-c2ccc(C(=O)O)cc2)cc1-c1ccc(F)cc1`, the IC50 in assay [2] is 97.1 µM.
Still for that read-out and setting: the figure for `c1ccc(CCN2CCCC2c2cncc(Nc3nncs3)n2)cc1` (stereo unspecified) is 25.5 µM; for `CCOc1ccccc1-c1cc(N)[nH]n1` it is 26.4 µM.
The same measure, in the same setting: the figure for `COc1cccc(CN2CCCC2c2cncc(Nc3nncs3)n2)c1` (stereo unspecified) is 26.9 µM.
Same read-out and setting: the figure for `c1ccc(-c2nc(CN3CCCC(Cn4cncn4)C3)cs2)cc1` (stereo unspecified) is 54.6 µM.
For the compound `O=C1CO[C@H]2CN(Cc3cccc4[nH]ccc34)C[C@@H]2N1C1CCOCC1`, in assay [2], the pIC50 was 4.298 and the IC50 was more than 100 µM.
With `CSc1nccc(-c2cccc(-c3ccn(CC4COCCO4)n3)c2)n1` (stereo unspecified), the IC50 in assay [2] was 40.3 µM.
On to `c1nnc(Nc2cncc(C3CCCN3CC3CC3)n2)s1` (stereo unspecified), for which the IC50 in assay [2] was 29.8 µM.
The same measure, in the same setting: the figure for `Cc1cc(NCc2ccccc2)nc2[nH]nc(N)c12` is 79.8 µM.
The same measure, in the same setting: in the case of `CCOC(=O)C(C)Nc1cccc(COCc2ccco2)c1` (stereo unspecified) it was more than 100 µM.
For `CN1CCN(C(=O)c2cnsn2)c2ccc(F)cc21`, the IC50 in assay [2] is 67.4 µM.
On the same count and under the same terms, the figure for `Cc1cnc(NC(=O)c2csc(NCC(C)C)n2)s1` is 1.99 µM.
Still for that read-out and setting: the figure for `Cn1ccnc1-c1nc(NC2CCCC2)ncc1-c1cccc(F)c1` is 40.3 µM; for `Cn1ccnc1C(NCc1ccccc1)c1ccc(F)cc1` (stereo unspecified) it is more than 100 µM; for `CCCn1cc(-c2ccnc(NC3CCCc4ccccc43)n2)c(C)n1` (stereo unspecified) it is 21.4 µM.
On to `CC(Cn1cccn1)NCc1csc(COc2ccc(F)cc2)n1` (stereo unspecified), for which the IC50 in assay [2] was 17.2 µM.
Still for that read-out and setting: the figure for `COC(=O)[C@H](CCSC)NC(=O)Cn1ccc2c(Cl)cccc21` is 70.7 µM.
Turning to `Cc1cc(C)n(CC2CCCN2CC(=O)Nc2cc(C(C)C)no2)n1` (stereo unspecified), in assay [2], the pIC50 is 4.348 and 4.706.
In turn, `COc1cc(C2Nc3cc(Cl)ccc3C3=NCCN32)ccc1O` (stereo unspecified) gave an IC50 in assay [2] of more than 100 µM.
On the same count and under the same terms, the figure for `c1ccc2nc(CN3CCCC3c3noc(C4CC4)n3)ccc2c1` (stereo unspecified) is 23.8 µM; for `CCOc1cccc2c1OCC(=O)N(c1ccc(N(C)C)cc1)C2` it is 44.1 µM; for `Cc1cccc(CN2CCCC2c2cncc(Nc3nncs3)n2)c1` (stereo unspecified) it is 17.1 µM.
Same read-out and setting: the figure for `COc1cc(-c2cc(NC3CCCC3)nc3[nH]ccc23)nc(N)n1` is 2.7 µM.
Still for that read-out and setting: the figure for `Cc1cc(NCc2ccco2)nc2[nH]nc(N)c12` is more than 100 µM.
Turning to `Cc1cc(-c2cnc(NC3CCCC3)nc2-c2ccc(C)o2)on1`, in assay [2], the pIC50 amounted to 4.052 and the IC50 is more than 100 µM.
As to `Cc1cc(-c2cnc(NCc3ccccn3)nc2C(C)C)on1`, in assay [2], the IC50 was more than 100 µM.
In assay [2], `Cc1ccc(CN(CCCn2ccnc2)Cc2c(F)cccc2F)s1.O=C(O)CC(O)(CC(=O)O)C(=O)O` had a pIC50 of 4.654 and an IC50 of 23.6 µM.
Compound `Cc1ccccc1OC1CCN(CC(=O)Nc2cn(C)nc2C)CC1` gave an IC50 in assay [2] of more than 100 µM.
In assay [2], `Cc1ccc(O)c(CN(CCCn2ccnc2)Cc2ccc(C)s2)c1.O=C(O)CC(O)(CC(=O)O)C(=O)O` gave a negative logarithm of the IC50 (pIC50) of 4.427 and an IC50 of 42.9 µM.
On to `CSc1ccc(CNC(c2ccc(F)cc2)c2nccn2C)cc1` (stereo unspecified), for which the IC50 in assay [2] was 32.5 µM.
Same read-out and setting: the figure for `Cc1cc(C)cc(CNC(c2ccccc2)c2nccn2C)c1` (stereo unspecified) is 4.29 µM.
As to `CCCNC(=O)C(C)n1nc(-c2ccc(C)o2)cc(N)c1=O` (stereo unspecified), the IC50 in assay [2] is more than 100 µM.
Still for that read-out and setting: the figure for `COc1ccc2c(c1)OCC(CNc1cc(N)nc(SC)n1)C2` (stereo unspecified) is 62.6 µM; for `CNc1cc(C2CN(Cc3scnc3C)CCO2)nc(C)n1` (stereo unspecified) it is more than 100 µM; for `CC(CCSc1ccccc1)N1CCN(C(=O)c2cccs2)CC1` (stereo unspecified) it is more than 100 µM.
Take `c1cc(CN2CCCCC2c2ccc(Nc3cnccn3)nc2)ccn1` (stereo unspecified): in assay [2], the pIC50 is < 4 and < 4.31.
As to `CC(C)Oc1ncccc1CNC(=O)c1ccccn1`, the IC50 in assay [2] is more than 100 µM.
Same read-out and setting: the figure for `Cc1cc2ccccc2n1CCC(=O)N1CCN(C)CC1C(N)=O` (stereo unspecified) is more than 100 µM.
In the case of `Cc1noc(NC(=O)c2ccccc2)n1`, in assay [2], the pIC50 turned out to be 4.405 and the IC50 was 62.6 µM.
Regarding `Cc1cnn(CC2CCCN2Cc2nc3ccccc3c(=O)[nH]2)c1` (stereo unspecified), in assay [2], the IC50 was 17.9 µM.
On the same count and under the same terms, in the case of `Cc1nc(-c2ccccc2)cc2nn(CC(N)=O)c(=O)n12` it was more than 100 µM; in that of `Cc1[nH]ccc1C(=O)N1CCOCC12CCCC2`, more than 100 µM.
The same measure, in the same setting: in the case of `O=C(CCC(=O)N1CCC(c2noc3cc(F)ccc23)CC1)NC1CC1` it was more than 100 µM; in that of `CCOc1ncccc1NC(=O)N1CCN(c2ccc(O)cc2)CC1`, more than 100 µM; in that of `O=C(NCC(O)c1ccsc1)Nc1cccs1` (stereo unspecified), 67.5 µM.
Still for that read-out and setting: in the case of `Cc1cc(O)cc(=O)n1CCCC(=O)Nc1n[nH]c2cc(Br)ccc12` it was more than 100 µM; in that of `Cc1cnn(CC2CCCN2Cc2nc(C)c3ccccc3n2)c1` (stereo unspecified), 34.9 µM; in that of `O=C(c1cncs1)N1CCCC1c1ccn[nH]1` (stereo unspecified), more than 100 µM.
In assay [2], `CNC(=O)C1(C)CN(Cc2cn(C)c3ccc(F)cc23)CCO1` (stereo unspecified) showed an IC50 of more than 100 µM.
Still for that read-out and setting: the figure for `CSc1ccc(CNC(c2ccccc2F)c2nccn2C)cc1` (stereo unspecified) is 16.4 µM; for `COc1ccc(OCc2cc(C(=O)N3CCCCO3)n[nH]2)c(Cl)c1` it is more than 100 µM; for `O=c1[nH]c(CCN2CCCC2Cn2cncn2)nc2ccccc12` (stereo unspecified) it is 34.3 µM.
The compound `Cc1cc(Nc2ccc(F)cn2)cc(C2CCN(Cc3ncc[nH]3)C2)n1` (stereo unspecified) had an IC50 in assay [2] of more than 100 µM.
In the case of `O=C(Nc1ccnc2ccnn12)c1ccc(N2CCC(O)CC2)cc1`, the IC50 in assay [2] is 74.1 µM.
In assay [2], `CN(C)S(=O)(=O)N1CCCCCC1c1cc(-c2ccc(F)cc2)no1` (stereo unspecified) had a pIC50 of 4.075 and an IC50 of more than 100 µM.
`CCN1CCN(c2ccc(NC(C)c3nc(C(C)C)no3)c(C)c2)CC1` (stereo unspecified): in assay [2], the IC50 was more than 100 µM.
`Cc1ccccc1C1CCN(CCn2cc(-c3cccc(O)c3)nn2)C1` (stereo unspecified) had an IC50 in assay [2] of 78.7 µM.
Still for that read-out and setting: in the case of `COc1ccccc1C(C)N(C)Cc1nc2c(cnn2C)c(=O)[nH]1` (stereo unspecified) it was more than 100 µM; in that of `Cc1ccc(CNC(c2ccccc2)c2nccn2C)cc1` (stereo unspecified), 19.9 µM.
On the same count and under the same terms, the figure for `COCCN(C)c1ccc(NCc2ccsc2)nc1` is more than 100 µM; for `Cc1ccsc1CN(c1nc(CCN)nc2ccccc12)C1CC1` it is 49.6 µM; for `Cc1cc(N2CCOCC2)ccc1NC(C)c1nc(C(C)C)no1` (stereo unspecified) it is more than 100 µM.
The same measure, in the same setting: the figure for `COc1ccccc1CN1CCc2c(nc(-c3ccccn3)[nH]c2=O)C1` is 3.35 µM; for `COc1cccc(C(NCc2ccc(SC)cc2)c2nccn2C)c1` (stereo unspecified) it is 6.39 µM; for `CC1c2cc(F)ccc2CCN1C(=O)c1[nH]c(=O)[nH]c(=O)c1N` (stereo unspecified) it is 66.9 µM.
Take `COc1ccccc1C(NCc1ccc(SC)cc1)c1nccn1C` (stereo unspecified): the IC50 in assay [2] is 48.8 µM.
Still for that read-out and setting: the figure for `COc1cccc2sc(N3CCN(C(=O)c4cc(C)on4)CC3)nc12` is more than 100 µM.
As for `CC1CCCN(c2ncc(-c3ccccc3F)c(-c3nccn3C)n2)C1` (stereo unspecified), the pIC50 in assay [2] was 4.289 and 4.7.
In the case of `Cc1cc(N2CCOCC2)ccc1NC(C)c1nc(C(C)(C)C)no1` (stereo unspecified), the IC50 in assay [2] was more than 100 µM.
Still for that read-out and setting: in the case of `COc1cc(CNC(c2ccccc2)c2nccn2C)cc(OC)c1` (stereo unspecified) it was 2.41 µM; in that of `O=C(NCCC(O)c1ccoc1)Nc1cccs1` (stereo unspecified), more than 100 µM.
Consider `COc1ccc(CN2CCc3c(nc(-c4ccccn4)[nH]c3=O)C2)cc1`, for which the pIC50 in assay [2] is 4.829 and 5.147.
Still for that read-out and setting: the figure for `CCCN1CCC(c2cc(CCOc3ccc(C(F)(F)F)cc3)[nH]n2)C1` (stereo unspecified) is < 4 and 4.339.
In assay [2], `CC(C)C1CCCN1CCCc1nc(-c2cccs2)no1` (stereo unspecified) had an IC50 of more than 100 µM.
With `O=C(Nc1nc2c(s1)CNCC2)NC1CCCC1`, the IC50 in assay [2] was more than 100 µM.
Same read-out and setting: the figure for `COCC(=O)N1CCCC1c1cccc(Nc2ncc(C)s2)n1` (stereo unspecified) is more than 100 µM.
`COc1cc(C(=O)Nc2nc(C)no2)ccc1OC(F)F`: in assay [2], the pIC50 turned out to be 4.585 and the IC50 is 41.3 µM.
As for `Oc1cc(C2CCCN(Cc3cccs3)C2)nc(-c2ccccn2)n1` (stereo unspecified), the pIC50 in assay [2] is 4.835 and 5.179.
With `CC(C)c1ncc2c(n1)CN(CCCc1nc3ccccc3o1)CC2`, the IC50 in assay [2] is more than 100 µM.
Still for that read-out and setting: in the case of `Cc1cccc(CNC(Cc2ccsc2)c2nccs2)n1` (stereo unspecified) it was 49.9 µM.
Same read-out and setting: the figure for `O=C(Cc1c[nH]c2ccccc12)N1CCC(Nc2ccccc2)CC1` is more than 100 µM.
